Measured values published in US20240285557A1, “PHARMACEUTICAL COMPOSITION COMPRISING LIPASE INHIBITOR FOR TREATMENT OR TREATMENT OF RNA VIRAL INFECTIONS” (priority 2021, published 2024).

System: SARS-COV-2 KCDC03 strain (A lineage), KDCA51463 strain (Alpha lineage), and KDCA55905 strain (Beta lineage)
Format: in vivo, Golden Syrian hamsters
Details: 40 mg kg^−1 day^−1 lipase inhibitor, 2.5 mg/kg/day remdesivir

In the case of `CCN(CC)C(=O)Nc1cccc(-c2ccc(N(C)C)cc2)c1` [DABPU-DE], the “pneumonia severity (and weight loss), comparison between treatment groups” value is reported as “more improvement”.
